Assay results from patent publication US11286243B2 (GLOBAL BLOOD THERAPEUTICS, INC., priority 2018, dated 2022).

Biological target: T1, human ferroportin (Homo sapiens, UniProt Q9NP59)
T1 construct: luciferase reporter (probably NanoLuc: read with the Nano-Glo Luciferase Assay System); expressed in transfected cells; host or cells: CHO cells, stably transfected, doxycycline-inducible expression
T1 sequence (Q9NP59 1-571): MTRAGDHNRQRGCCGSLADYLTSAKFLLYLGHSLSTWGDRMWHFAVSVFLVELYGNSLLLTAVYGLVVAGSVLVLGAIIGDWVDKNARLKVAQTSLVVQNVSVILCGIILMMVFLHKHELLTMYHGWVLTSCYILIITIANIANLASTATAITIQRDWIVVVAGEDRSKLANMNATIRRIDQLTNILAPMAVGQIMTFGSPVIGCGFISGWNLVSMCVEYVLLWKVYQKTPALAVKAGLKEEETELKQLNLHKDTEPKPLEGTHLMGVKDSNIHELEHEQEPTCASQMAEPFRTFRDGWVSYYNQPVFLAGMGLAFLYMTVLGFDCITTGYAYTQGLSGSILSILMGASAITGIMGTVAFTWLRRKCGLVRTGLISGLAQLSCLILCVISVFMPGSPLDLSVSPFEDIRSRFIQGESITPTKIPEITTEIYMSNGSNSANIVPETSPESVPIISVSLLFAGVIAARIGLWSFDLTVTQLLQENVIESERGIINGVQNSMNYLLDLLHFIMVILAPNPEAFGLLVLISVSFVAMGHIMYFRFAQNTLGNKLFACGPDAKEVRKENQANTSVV
Assay: In-vitro ferroportin internalization assay (luciferase reporter)
Type: cell-based
Details: average pEC50; stably-transfected CHO cell line expressing human ferroportin tagged to a luciferase reporter; 6 h incubation with test compounds
In short: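 CHO cells stably expressing human ferroportin fused to a luciferase reporter were plated 24 h with ferric ammonium citrate, then induced with doxycycline for 24 h. Compounds in DMSO were incubated with cells for 6 h before luciferase readout by Nano-Glo. Results are reported as average pEC50.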

pEC50	Compound
7.1	Fc1cccnc1CNc1nccc2oc([C@@H](F)CNCCc3nc4ccccc4[nH]3)nc12 [Compound 75, 2-[(1 S)-2-{[2-(1H-1,3-benzodiazol-2-yl)ethyl]amino}-1-fluoroethyl]-N-[(3-fluoropyridin-2-yl)methyl]-[1,3]oxazolo[4,5-c]pyridin-4-amine]
8.1	Cc1nc(CCNCCc2nc3c(NCc4ncccc4F)nc(O)nc3s2)[nH]c1C [Compound 76, 2-(2-{[2-(4,5-dimethyl-1H-imidazol-2-yl)ethyl]amino}ethyl)-7-{[(3-fluoropyridin-2-yl)methyl]amino}-[1,3]thiazolo[5,4-d]pyrimidin-5-ol]
7.8	Fc1cccnc1CNc1ncnc2sc([C@H](F)CNCCc3nc4ccccc4[nH]3)nc12 [Compound 77, 2-[(1R)-2-{[2-(1H-1,3-benzodiazol-2-yl)ethyl]amino}-1-fluoroethyl]-N-[(3-fluoropyridin-2-yl)methyl]-[1,3]thiazolo[5,4-d]pyrimidin-7-amine]
<5	Cc1nc(Cc2ccccc2)c(CNCCc2nc3c(NCc4ncccc4F)nccc3o2)[nH]1 [Compound 78, 2-(2-{[(4-benzyl-2-methyl-1H-imidazol-5-yl)methyl]amino}ethyl)-N-[(3-fluoropyridin-2-yl)methyl]-[1,3]oxazolo[4,5-c]pyridin-4-amine]
<5	Fc1cccnc1CNc1ncnc2sc(CCNCCc3ncc(-c4ccncc4)[nH]3)nc12 [Compound 79, N-[(3-fluoropyridin-2-yl)methyl]-2-[2-({2-[5-(pyridin-4-yl)-1H-imidazol-2-yl]ethyl}amino)ethyl]-[1,3]thiazolo[5,4-d]pyrimidin-7-amine]
<5	O=C(NCc1ccc2[nH]c(CCNCCc3nc4c(NCc5ncccc5F)ncnc4s3)nc2c1)c1ccc2c(c1)C1(OC2=O)c2ccc(O)cc2Oc2cc(O)ccc21 [Compound 80]
6.3	Fc1cccnc1CNc1nccc2oc(C(F)(F)CNCCc3nc4ccccc4[nH]3)nc12 [Compound 81, 2-(2-{[2-(1H-1,3-benzodiazol-2-yl)ethyl]amino}-1,1-difluoroethyl)-N-[(3-fluoropyridin-2-yl)methyl]-[1,3]oxazolo[4,5-c]pyridin-4-amine]
6.4	Fc1cccnc1CNc1nccc2sc([C@H](F)CNCCc3nc4ccccc4[nH]3)nc12 [Compound 82, 2-[(1R)-2-{[2-(1H-1,3-benzodiazol-2-yl)ethyl]amino}-1-fluoroethyl]-N-[(3-fluoropyridin-2-yl)methyl]-[1,3]thiazolo[4,5-c]pyridin-4-amine]
7.1	Oc1nc(NCc2ncccc2F)c2nc([C@H](F)CNCCc3nc4ccccc4[nH]3)sc2n1 [Compound 83, 2-[(1R)-2-{[2-(1H-1,3-benzodiazol-2-yl)ethyl]amino}-1-fluoroethyl]-7-{[(3-fluoropyridin-2-yl)methyl]amino}-[1,3]thiazolo[5,4-d]pyrimidin-5-ol]
